Columns and labels:
HOC-22 ovarian carcinoma = test: human orthotopic ovarian carcinoma mouse xenograft model HOC-22, survival; assay type: in vivo; settings: versus vehicle/control mice (median survival 30 days); RO 28-2653 45 mg/kg oral daily six times a week, day 7 to 21; Cisplatin 4 doses of 3 mg/kg i.v. every 4 days from day 7
Description: DDP=Cisplatin. […] Statistics was calculated using the log rank test. […] Cisplatin treatment consisted of 4 doses of 3 mg/kg i.v. per mouse once every 4 days, starting on day 7.

[1] = tested on: MatLyLu prostate carcinoma; test: rat syngeneic orthotopic prostate carcinoma model MatLyLu, primary tumor size; assay type: in vivo; settings: as compared to vehicle-treated animals; RO 28-2653 100 mg/kg oral daily, Etoposide 25 mg/m^2 i.p. once daily, day 6 to day 17
Description: Etoposide was given intraperitoneally once daily, from day 6 to day 17, at a dose of 25 mg/m^2.

[2] = tested on: PancTul pancreas carcinoma; settings: for inhibition of primary tumor growth: RO 28-2653 45 mg/kg oral daily day 7 to 30; for inhibition of primary tumor growth / Volume Primary tumor (Vm) / average number of metastases per animal: Gemcitabine 2.2 mg/kg i.p. every second day, day 7 to 30; for Volume Primary tumor (Vm) / average number of metastases per animal: RO 28-2653 45 mg/kg oral daily; for Metastasis Diaphragm / Metastasis Kidneys/Adrenal gland (capsule) / Metastasis Ligament of the uterus/testis (serosa), seminal vesicles / Metastasis Liver hilus / Metastasis Liver, in parenchyme / Metastasis Liver, on serosa / Metastasis Lung/Mediastinum / Metastasis Lymph nodes in mesentery / Metastasis Mesentery 3-20 metastasis(1-18 mm^3) / Metastasis Mesentery < 3 metastasis(^2 mm^3) / Metastasis Pelvis / Metastasis Site of surgical incision Large 80-280 mm^3 / Metastasis Site of surgical incision Medium < 50 mm^3 / Metastasis Site of surgical incision Small < 10 mm^3 / Metastasis Spleen (serosa), gastrosplenic ligament: animals with metastasis / animals in group; for Necrosis Primary tumor: animals with necrosis / animals in group; for Tumor take rate Primary tumor: animals with tumor / animals in group; for Body weight (m): mean change (spread)
Description: The activity of RO 28-2653 in combination with Gemcitabine was evaluated in the human orthotopic pancreas carcinoma mouse xenograft model PancTul with primary tumor size and number and size of metastases as endpoints.
Effect of the combination of RO 28-2653 and Gemcitabine on primary tumor volume in the orthotopic PancTul pancreas cancer xenograft model. Mice were treated with RO 28-2653 with daily oral doses of 45 mg/kg from day 7 until day 30. Gemcitabine treatment consisted of one intraperitoneal dose of 2.2 mg/kg every second day from day 7 to day 30.
Effect of the combination of RO 28-2653 and Gemcitabine on metastatic spread in the orthotopic PancTul pancreas cancer xenograft model. Mice were treated with RO 28-2653 with daily oral doses of 45 mg/kg from day 7 until day 30. Gemcitabine treatment consisted of one intraperitoneal dose of 2.2 mg/kg every second day from day 7 to day 30.

[3] = toxicological tests over a wide range of doses; assay type: in vivo; settings: side effects like those of broad-spectrum MMP inhibitors
Source text: Thus, no dose-limiting toxicities were expected with RO 28-2653, and accordingly no additional benefit from co-treatment with cytostatic/cytotoxic drugs was expected. However, to explore also the distant possibility of an additional benefit from combination treatment, such studies were initiated and conducted in various animal models. The models and cytostatic/cytotoxic drugs were chosen to reflect as broad a spectrum of oncological indications and clinically active treatment principles as possible.

| Compound | increase in lifespan (HOC-22 ovarian carcinoma) [%] | inhibition of primary tumor growth [1] [%] | inhibition of primary tumor growth [2] [%] | Volume Primary tumor (Vm) [2] | average number of metastases per animal [2] [metastases per animal] | Metastasis Diaphragm [2] | Metastasis Kidneys/Adrenal gland (capsule) [2] | Metastasis Ligament of the uterus/testis (serosa), seminal vesicles [2] | Metastasis Liver hilus [2] | Metastasis Liver, in parenchyme [2] | Metastasis Liver, on serosa [2] | Metastasis Lung/Mediastinum [2] | Metastasis Lymph nodes in mesentery [2] | Metastasis Mesentery 3-20 metastasis(1-18 mm^3) [2] | Metastasis Mesentery < 3 metastasis(^2 mm^3) [2] | Metastasis Pelvis [2] | Metastasis Site of surgical incision Large 80-280 mm^3 [2] | Metastasis Site of surgical incision Medium < 50 mm^3 [2] | Metastasis Site of surgical incision Small < 10 mm^3 [2] | Metastasis Spleen (serosa), gastrosplenic ligament [2] | further results |
| --- | --- | --- | --- | --- | --- | --- | --- | --- | --- | --- | --- | --- | --- | --- | --- | --- | --- | --- | --- | --- | --- |
| N.N.[Cl][Pt][Cl] [Cisplatin, reference compound] | 95 |  |  |  |  |  |  |  |  |  |  |  |  |  |  |  |  |  |  |  |  |
| COc1cc([C@@H]2c3cc4c(cc3[C@@H](O[C@@H]3O[C@@H]5CO[C@@H](C)O[C@H]5[C@H](O)[C@H]3O)[C@H]3COC(=O)[C@H]23)OCO4)cc(OC)c1O [Etoposide, reference compound] |  | 35 |  |  |  |  |  |  |  |  |  |  |  |  |  |  |  |  |  |  |  |
| Nc1ccn([C@@H]2O[C@H](CO)[C@@H](O)C2(F)F)c(=O)n1 [Gemcitabine, reference compound] |  |  | 85 | Vm = 51 (±14) mm^3 | 0.4 | 0/13 | 0/13 | 0/13 | 0/13 | 1/13 | 1/13 | 0/13 | 0/13 | 0/13 | 0/13 | 0/13 | 0/13 | 1/13 | 2/13 | 0/13 | Necrosis Primary tumor [2]: 4/13; Tumor take rate Primary tumor [2]: 13/13; Body weight (m) [2]: m = −2 (±5)% |
| O=C1NC(=O)C(c2ccc(-c3ccccc3)cc2)(N2CCN(c3ccc([N+](=O)[O-])cc3)CC2)C(=O)N1 [RO 28-2653, 5-(4-biphenyl)-5-[N-(4-nitrophenyl)piperazinyl] barbituric acid] | 63 | 86 | 66 | Vm = 112 (±46) mm^3 | 2.5 | 3/13 | 1/13 | 0/13 | 4/13 | 3/13 | 2/13 | 2/13 | 2/13 | 5/13 | 0/13 | 0/13 | 6/13 | 3/13 | 2/13 | 0/13 | Necrosis Primary tumor [2]: 1/13; Tumor take rate Primary tumor [2]: 13/13; Body weight (m) [2]: m = −5 (±4)%; side effects [3]: no side effects |

From US20040132739A1, “Combination of a gelatinase inhibitor and an anti-tumor agent, and uses thereof” (priority 2001, published 2004)
